The test system of data set [1] is mice having type I diabetes or type II diabetes induced by different medicaments. To be noted: mice with induced type I or type II diabetes; acteoside obtained from plantago; CN 102283854 A; cited from earlier work.
Data set [2] relates to human hepatocellular liver carcinoma cell line (HepG2). In words: Carbohydrate consumption assay in HepG2 cells. It is filed as cell-based. As for the experimental part: A carbohydrate consumption assay was conducted by using human hepatocellular liver carcinoma cell line (HepG2, Bioresource Collection and Research Center, BCRC number: 60025). The cells were treated with 1000 μg/ml glucose, and then treated with 100 nM insulin, 50 μg/ml Cistanche tubulosa extract (CTE), 12.5 μg/ml of echinacoside, 1.25 μg/ml of acteoside, or 2.25 μg/ml of isoacteoside (i.e., an active component by an amount of what it presents in the extract). After 1 hour, the carbohydrate consumption level was determined. The results are shown in FIG. 10, wherein the data were shown as mean±standard deviation (n=3); ***P<0.001 (as compared to the control group).
To further confirm if the active components that are present in Cistanche tubulosa extract have the effect of accelerating liver cells to uptake blood sugar, a carbohydrate consumption assay as described above was conducted by using different concentrations of Cistanche tubulosa extract, echinacoside, acteoside and isoacteoside to treated the HepG2 cells. The results are shown in FIG. 11, wherein the data were shown as mean±standard deviation (n=3); **P<0.01; ***P<0.001 (as compared to the control group); #P<0.05 (as compared to the insulin group).

Data set [3] deals with liver cells. To be noted: acteoside obtained from plantago, CN 102283854 A; cited from earlier work.
Data set [4] concerns induced diabetic rats. The data set can be described thus: Determination of fasting plasma glucose concentration. The format is in vivo, SD (Sprague-Dawley) rats. To be noted: DMR group: rosiglitazone 0.571 mg/kg body weight oral once daily 6 weeks; DM + 45% HFD rats; mean, n = 10. The method, then:
(§1) 4-week-old male SD (Sprague-Dawley) rats were fed for one week, and then randomly divided into six groups (10 rats in each group), including five experimental groups and a control group. The rats in the experimental groups were intraperitoneally injected with 230 mg/kg body weight of nicotinamide, and then intraperitoneally injected with 65 mg/kg body weight of streptozocin to induced diabetes mellitus (the DM group). The control group was intraperitoneally injected with the same volume of a citrate buffer (pH 4.5). […] The rats in the control group and the DM group were administered with double distilled water once daily for 6 weeks. The body weight of the rats was measured weekly and the caloric intake was calculated.
(§2) After the above glucose tolerance test, the rats were sacrificed, and the blood samples were taken from the celiac artery. The blood samples were centrifuged at 3000 rpm, 4° C. for 15 minutes. The supernatant was collected, which is the plasma. Other tissue of the rats was also taken out and weighed, and then stored at −80° C. for the following biochemical data analysis.

Data set [5] concerns induced diabetic rats. The data set can be described thus: Determination of total cholesterol concentration in plasma. To be noted: DMR group: rosiglitazone 0.571 mg/kg body weight oral once daily 6 weeks, DM + 45% HFD rats, mean, n = 10. It is filed as in vivo, SD (Sprague-Dawley) rats. The method, then:
as §1, §2

A short description of data set [6]: Body weight and caloric intake of diabetic SD rats during 6 weeks treatment. The format is in vivo, SD (Sprague-Dawley) rats. To be noted: FIG. 1; measured weekly; comparison between groups; rosiglitazone 0.571 mg/kg, CTE 80, 160, 320 mg/kg oral once daily 6 weeks. As for the experimental part:
4-week-old male SD (Sprague-Dawley) rats were fed for one week, and then randomly divided into six groups (10 rats in each group), including five experimental groups and a control group. The rats in the experimental groups were intraperitoneally injected with 230 mg/kg body weight of nicotinamide, and then intraperitoneally injected with 65 mg/kg body weight of streptozocin to induced diabetes mellitus (the DM group). The control group was intraperitoneally injected with the same volume of a citrate buffer (pH 4.5). After a week, the fasting blood glucose of the induced diabetic rats in the experimental groups were measured, to confirmed the fasting blood glucose>[…]. The rats were then fed with a 45% high fat diet (HFD) for 6 weeks. Then, using the dosage shown in Table 1, the rats were orally administered with 0.571 mg/kg body weight of rosiglitazone (a medicine for regulating blood glucose levels, which is an insulin sensitizer) (DMR group) or 80 mg/kg body weight of Cistanche tubulosa extract (CTE) (DME1 group), 160 mg/kg body weight of CTE (DME2 group), or 320 mg/kg body weight of CTE (DME4 group), once daily for 6 weeks. The rats in the control group and the DM group were administered with double distilled water once daily for 6 weeks. The body weight of the rats was measured weekly and the caloric intake was calculated. […]

A short description of data set [7]: Weights of the liver, kidney, heart, and abdominal fat of the rats. The format is in vivo, SD (Sprague-Dawley) rats. To be noted: DMR group: rosiglitazone 0.571 mg/kg body weight oral once daily 6 weeks; DM + 45% HFD rats; mean, n = 10. As for the experimental part: 4-week-old male SD (Sprague-Dawley) rats were fed for one week, and then randomly divided into six groups (10 rats in each group), including five experimental groups and a control group. The rats in the experimental groups were intraperitoneally injected with 230 mg/kg body weight of nicotinamide, and then intraperitoneally injected with 65 mg/kg body weight of streptozocin to induced diabetes mellitus (the DM group). The control group was intraperitoneally injected with the same volume of a citrate buffer (pH 4.5). After a week, the fasting blood glucose of the induced diabetic rats in the experimental groups were measured, to confirmed the fasting blood glucose>[…]. The rats were then fed with a 45% high fat diet (HFD) for 6 weeks. Then, using the dosage shown in Table 1, the rats were orally administered with 0.571 mg/kg body weight of rosiglitazone (a medicine for regulating blood glucose levels, which is an insulin sensitizer) (DMR group) or 80 mg/kg body weight of Cistanche tubulosa extract (CTE) (DME1 group), 160 mg/kg body weight of CTE (DME2 group), or 320 mg/kg body weight of CTE (DME4 group), once daily for 6 weeks. The rats in the control group and the DM group were administered with double distilled water once daily for 6 weeks. The body weight of the rats was measured weekly and the caloric intake was calculated. The results are shown in FIG. 1 (body weight) and FIG. 2 (caloric intake).
In this experiment, the weights of the liver, kidney, heart, and abdominal fat of the rats treated with different conditions for 6 weeks were determined.

In data set [8] the test system is induced diabetic rats. In words: Determination of total triglyceride concentration in plasma. The format is in vivo, SD (Sprague-Dawley) rats. To be noted: DMR group: rosiglitazone 0.571 mg/kg body weight oral once daily 6 weeks, DM + 45% HFD rats, mean, n = 10. As for the experimental part: as §1, §2
Data set [9] has as its system induced diabetic rats. In words: Plasma antioxidant enzymes (SOD, catalase, GPx). The format is in vivo, SD (Sprague-Dawley) rats. Particulars: DMR group: rosiglitazone 0.571 mg/kg body weight oral once daily 6 weeks, DM + 45% HFD rats, mean, n = 10. The method, then: as §1, §2
It has been known that both Type I diabetes mellitus and Type II diabetes mellitus may cause the decreased expression of antioxidant enzymes in the body, and thus, increases oxidative stress. In this experiment, the concentrations of superoxide dismutase (SOD) catalase, and glutathione peroxidase (GPx) in the plasma of the rats were analyzed by an SOD detection kit, a catalase detection kit, and a GPx detection kit (Eugene-Chen CO., LTD, TW), respectively, to analyze the effect of CTE on the expression levels of antioxidant enzymes.

The subject of data set [10] is induced diabetic rats. The data set can be described thus: Determination of plasma insulin concentration (ELISA). Particulars: DMR group: rosiglitazone 0.571 mg/kg body weight oral once daily 6 weeks, DM + 45% HFD rats, mean, n = 10. The format is in vivo, SD (Sprague-Dawley) rats. The method, then: as §1, §2
The subject of data set [11] is induced diabetic rats. In words: Over-oxidation of plasma lipid (plasma malondialdehyde). It is filed as in vivo, SD (Sprague-Dawley) rats. Particulars: DMR group: rosiglitazone 0.571 mg/kg body weight oral once daily 6 weeks, DM + 45% HFD rats, mean, n = 10. As for the experimental part: as §1, §2
The subject of data set [12] is induced diabetic rats. In words: Liver and kidney function indicators in plasma (urea, creatinine, ALT, AST). Particulars: DMR group: rosiglitazone 0.571 mg/kg body weight oral once daily 6 weeks, DM + 45% HFD rats, mean, n = 10. The format is in vivo, SD (Sprague-Dawley) rats. The method, then:
as §1, §2
It has been known that diabetes mellitus may cause a lot of complications.

Data set [13] concerns induced diabetic rats. In words: Determination of plasma leptin concentration (enzyme immunoassay). It is filed as in vivo, SD (Sprague-Dawley) rats. To be noted: DMR group: rosiglitazone 0.571 mg/kg body weight oral once daily 6 weeks, DM + 45% HFD rats, mean, n = 10. As for the experimental part: as §1, §2
Data set [14] has as its system induced diabetic rats. The data set can be described thus: Homeostasis model assessment equation of insulin resistance (HOMA-IR). The format is in vivo, SD (Sprague-Dawley) rats. To be noted: DMR group: rosiglitazone 0.571 mg/kg body weight oral once daily 6 weeks; DM + 45% HFD rats; mean, n = 10. As for the experimental part: 4-week-old male SD (Sprague-Dawley) rats were fed for one week, and then randomly divided into six groups (10 rats in each group), including five experimental groups and a control group. The rats in the experimental groups were intraperitoneally injected with 230 mg/kg body weight of nicotinamide, and then intraperitoneally injected with 65 mg/kg body weight of streptozocin to induced diabetes mellitus (the DM group). The control group was intraperitoneally injected with the same volume of a citrate buffer (pH 4.5). After a week, the fasting blood glucose of the induced diabetic rats in the experimental groups were measured, to confirmed the fasting blood glucose>[…]. The rats were then fed with a 45% high fat diet (HFD) for 6 weeks. […] The body weight of the rats was measured weekly and the caloric intake was calculated. […]
The homeostasis model assessment equation of insulin resistance (HOMA-IR) was calculated by the formula as follows: HOMA-IR=fasting plasma insulin concentration (mU/ml)×fasting plasma glucose concentration (mmole/L)÷22.5

Setting [15] is: FIG. 11, 5 μg/ml and 50 μg/ml, HepG2, compared to the control group, dose dependence.
[16] abbreviates: FIG. 11, very low concentration, such as 5 μg/ml, HepG2.

Structures are written as SMILES.

For the compound `C[C@@H]1O[C@@H](O[C@@H]2[C@@H](O)[C@H](OCCc3ccc(O)c(O)c3)O[C@H](CO)[C@H]2OC(=O)/C=C/c2ccc(O)c(O)c2)[C@H](O)[C@H](O)[C@H]1O` [acteoside], in data set [1], the “Fasting blood glucose level” value is recorded as “decrease” and the Serum insulin level result is listed as “enhancing”. The Carbohydrate consumption level result in data set [2] (FIG. 10, 1.25 μg/ml, HepG2, 1000 μg/ml glucose, after 1 hour, compared to the control group) was “not obvious”. Besides, in data set [2] (setting [15]), the Carbohydrate consumption level entry is “effectively increase”. Moreover, the Consumption of glucose entry in [3] is reported as “effective in promoting the consumption of glucose”.

Turning to `C[C@@H]1O[C@@H](O[C@@H]2[C@@H](O)[C@H](OCCc3ccc(O)c(O)c3)O[C@H](CO[C@@H]3O[C@H](CO)[C@@H](O)[C@H](O)[C@H]3O)[C@H]2OC(=O)/C=C/c2ccc(O)c(O)c2)[C@H](O)[C@H](O)[C@H]1O` [echinacoside], the Carbohydrate consumption level entry is reported as “effectively increase” in data set [2] (FIG. 10, 12.5 μg/ml, HepG2, 1000 μg/ml glucose, after 1 hour, compared to the control group); “effectively increase” in [2] (setting [15]); “increase” in [2] (setting [16]).

In the case of `C[C@@H]1O[C@@H](O[C@@H]2[C@@H](O)[C@H](OCCc3ccc(O)c(O)c3)O[C@H](COC(=O)/C=C/c3ccc(O)c(O)c3)[C@H]2O)[C@H](O)[C@H](O)[C@H]1O` [isoacteoside], the Carbohydrate consumption level result is listed as “effectively increase” in data set [2] (FIG. 10, 2.25 μg/ml, HepG2, 1000 μg/ml glucose, after 1 hour, compared to the control group); “effectively increase” in data set [2] (setting [15]); “increase” in data set [2] (setting [16]).

For the compound `CN(CCOc1ccc(CC2SC(=O)NC2=O)cc1)c1ccccn1` (stereo not shown) [rosiglitazone], in data set [4], the Fasting blood glucose amounted to 134.37 mg/dL. For the same compound, the Total cholesterol in data set [5] worked out at 106.90 mg/dL. Moreover, the Body weight entry in data set [6] is reported as “no significant difference”. In data set [7], the “Abdominal fat weight, percentage compared to body weight” value was determined as 2.49%; the “Heart weight, percentage compared to body weight” value amounted to 0.34%; the “Kidney weight, percentage compared to body weight” value is listed as 0.34%; the “Liver weight, percentage compared to body weight” value is on record as 3.21%. The The total triglyceride in data set [8] was found to be 62.77 mg/dL. Also, in data set [9], the Catalase is given as 60.05 U/mg protein, the Glutathione peroxidase was found to be 811.08 U/mg protein and the Superoxide dismutase is recorded as 0.65 U/mg protein. Besides, the Insulin in data set [10] was 3.57 ng/mL. Also, in data set [11], the Malondialdehyde stood at 13.38 nM/ml. Moreover, in data set [12], the ALT is given as 29.88 U/L, the AST is recorded as 38.24 U/L, the AST/ALT is recorded as 1.34 and the Creatinine turned out to be 1.19 mg/dL. Moreover, the Urea in data set [12] amounted to 19.14 mg/dL. For the same compound, the Leptin in data set [13] is 6.38 ng/mL. The HOMA-IR in data set [14] came to 2.37 μg · mmole/L^2.

These data come from US9339522B2, “Method for regulating blood glucose level” (SINPHAR PHARMACEUTICAL CO., LTD., priority 2013, dated 2016).
